Values joined by “and” are separate entries in the source; they are usually repeats but may differ in a detail not shown here. Equal entries are not always repeated.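 Cultured in 96-well plates, cells were exposed to test compound for 48 hours across five concentrations. GI50 is the concentration that inhibits growth by half. At the TGI there is no net growth.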
Assays:
Test in all cases: NCI tumour cell line growth inhibition, 48 h
UACC-62 melanoma = tested on: UACC-62 melanoma
SK-MEL-28 melanoma = tested on: SK-MEL-28 melanoma
RPMI-8226 leukemia = tested on: RPMI-8226 leukemia
HOP-62 NSCLC = tested on: HOP-62 NSCLC
SF-268 CNS = tested on: SF-268 CNS
HL-60(TB) leukemia = tested on: HL-60(TB) leukemia
NCI-H522 lung = tested on: NCI-H522 lung
UACC-257 melanoma = tested on: UACC-257 melanoma
SK-MEL-5 melanoma = tested on: SK-MEL-5 melanoma
T-47D breast = tested on: T-47D breast

SMILES	TGI (UACC-62 melanoma) [µM]	TGI (SK-MEL-28 melanoma) [µM]	TGI (RPMI-8226 leukemia) [µM]	TGI (HOP-62 NSCLC)	TGI (SF-268 CNS)	TGI (HL-60(TB) leukemia) [µM]	TGI (NCI-H522 lung)	TGI (UACC-257 melanoma)	TGI (SK-MEL-5 melanoma)	GI50 (UACC-62 melanoma) [µM]	GI50 (SK-MEL-28 melanoma) [µM]	GI50 (SF-268 CNS) [µM]	GI50 (HL-60(TB) leukemia) [µM]	TGI (T-47D breast)	GI50 (RPMI-8226 leukemia) [µM]	GI50 (HOP-62 NSCLC) [µM]	GI50 (NCI-H522 lung) [µM]	GI50 (UACC-257 melanoma) [µM]	GI50 (SK-MEL-5 melanoma) [µM]	GI50 (T-47D breast) [µM]
O=C(/C=C\c1cccc2ccccc12)c1ccc(Cl)cc1Cl	34	38.4	46.6	> 100 µM	51.9 µM	41.1	35.1 µM	75.3 µM	> 100 µM	–	–	–	–	–	–	–	–	–	–	–
COc1ccc([C@@]23Oc4cc(OC)cc(OC)c4[C@]2(O)[C@H](O)[C@H](C(N)=O)[C@H]3c2ccccc2)cc1	0.106	–	–	0.216 µM and 0.0916 µM	0.0913 µM and < 0.01 µM	0.0785	0.0737 µM and < 0.0104 µM	0.206 µM and < 0.0304 µM	0.0329 µM and < 0.0139 µM	< 0.016	< 0.0116	< 0.0113	< 0.01	0.21 µM and 0.0483 µM	–	–	–	–	–	–
N#CC(C(=O)/C(=N\NC(N)=O)C(C#N)c1ccccc1)c1ccccc1 (centres undefined)	> 100	> 100	> 100	> 100 µM	> 100 µM	> 100	> 100 µM	> 100 µM	–	–	–	–	–	–	–	–	–	–	–	–
CC(=O)[C@H]1CCC2[C@@H]3CC=C4C[C@@H]([O-])CC[C@]4(C)C3CC[C@@]21C.CC(=O)[C@H]1CCC2[C@@H]3CC=C4C[C@@H]([O-])CC[C@]4(C)C3CC[C@@]21C.CC(=O)[CH-]C(=O)c1ccccc1.CC(=O)[CH-]C(=O)c1ccccc1.Cl.[Ti+4] (some centres undefined)	56.9	–	> 100	67.6 µM	92.8 µM	> 100	66.5 µM	69.7 µM	> 100 µM	15.8	–	21.3	4.64	–	15	24.6	20.3	16.2	18.3	–
COC(=O)c1cc2c3ccccc3n3c2c(n1)-c1[nH]c2ccccc2c(=O)c1C3	> 100	> 100	–	–	> 100 µM	> 100	> 100 µM	> 100 µM	> 100 µM	43.3	> 100	29.6	> 100	> 100 µM	–	–	66.3	> 100	> 100	58.4
N/N=C(/Cc1nc2ccc(C(=O)c3ccccc3)cc2[nH]c1=O)C(=O)Nc1ccc([N+](=O)[O-])cc1[N+](=O)[O-]	> 100	> 100	> 100	–	> 100 µM	–	> 100 µM	> 100 µM	> 100 µM	–	> 100	> 100	–	–	> 100	–	> 100	–	–	–
CC1NC(=O)C2=C1C(=O)NC(=O)C2 (centres undefined)	> 100	–	> 100	> 100 µM	> 100 µM	> 100	> 100 µM	> 100 µM	> 100 µM	> 100	–	> 100	> 100	–	> 100	> 100	> 100	> 100	> 100	–
CC1(C)CCCC(C)(C2CCC3(C)C2C(O)CC2C4(C)CCC(O)C(C)(C)C4CCC23C)O1 (centres undefined)	> 100	> 100	–	–	> 100 µM	> 100	> 100 µM	> 100 µM	> 100 µM	–	–	–	–	> 100 µM	–	–	–	–	–	–
Clc1cccc(C2N3CCCCC3[C@@H]3c4[nH]c5ccccc5c4CCN23)c1 (some centres undefined)	30.7	79.9	81.8	> 100 µM	> 100 µM	44.1	–	98.2 µM	34.1 µM	–	–	–	–	–	–	–	–	–	–	–
